PMC3001719, “The heme sensing response regulator HssR in Staphylococcus aureus but not the homologous RR23 in Listeria monocytogenes modulates susceptibility to the antimicrobial peptide plectasin” (BMC Microbiology, 2010)

Tested on: S. aureus 8325-4 hssR::bursa/pRMC2-hssRS (complementation of hssR transposon mutant)
Assay: MIC, microbroth dilution
Format: cell-based, Staphylococcus aureus
Details: 8325-4 hssR::bursa/pRMC2-hssRS compared to 8325-4 hssR::bursa, MIC
Experimental: Protamine was purchased from Sigma (P4020-5G). Plectasin, eurocin, novicidin, and novispirin G10 were supplied by Department of Antiinfective Discovery, Novozymes A/S. The host defence peptides were dissolved in 0.01% acetic acid/0.1% bovine serum albumin (Sigma, A7906).
Minimal inhibitory concentrations (MIC) of plectasin, eurocin, protamine, novicidin, and novispirin G10 were determined using a microbroth dilution method. Colonies from a BHI plate incubated overnight at 37 °C were suspended in MHB pH 7.4 to an absorbance at 546 nm of 0.11-0.12 at 546 nm (approx. 1.0 × 10^8 CFU/ml) and diluted in MHB to a concentration of 5.0 × 10^5 CFU/ml. Ninety μl of bacterial suspension was incubated with 10 μl of peptide solution in polypropylene 96-well plates (Nunc, 442587) for 18-24 h at 37°C. The peptide solutions were made fresh on the day of assay. The range of concentrations assayed were 0.25-256 μg/ml for plectasin and eurocin, 0.125-128 μg/ml for protamine and novispirin G10, and 0.031-32 μg/ml for novicidin. MIC was the lowest peptide concentration at which visual growth was inhibited.

Q: For `CC[C@H](C)[C@@H]1NC(=O)[C@H](CO)NC(=O)[C@H](CCCCN)NC(=O)[C@@H]2CSSC[C@@H](C(=O)N[C@@H](Cc3ccc(O)cc3)C(=O)O)NC(=O)[C@H](CCCCN)NC(=O)[C@@H]3CSSC[C@H](NC(=O)[C@H](CCC(N)=O)NC(=O)[C@H](CCSC)NC(=O)[C@H](CC(=O)O)NC(=O)[C@H](CC(=O)O)NC(=O)[C@H](CCC(=O)O)NC(=O)[C@H](CC(=O)O)NC(=O)[C@H](Cc4c[nH]c5ccccc45)NC(=O)[C@@H]4CCCN4C(=O)CNC(=O)[C@H](CC(N)=O)NC(=O)[C@@H](NC(=O)CNC(=O)[C@H](Cc4ccccc4)NC(=O)CN)CSSC[C@H](NC(=O)[C@H](Cc4ccc(O)cc4)NC(=O)CNC(=O)CNC(=O)[C@H](CCCCN)NC(=O)[C@H](Cc4ccc(O)cc4)NC(=O)CNC(=O)[C@H](CCCCN)NC1=O)C(=O)N[C@@H](C)C(=O)N[C@@H](CCCCN)C(=O)NCC(=O)NCC(=O)N[C@@H](Cc1ccccc1)C(=O)N[C@@H](C(C)C)C(=O)N3)C(=O)N[C@@H](Cc1c[nH]cn1)C(=O)N[C@@H](CC(N)=O)C(=O)N[C@@H](Cc1c[nH]cn1)C(=O)N2` [plectasin], which “Decrease of resistance by complementation” value is on record?
A: Its value is 2 fold.
